Data taken from patent publication US8383626B2, “Nitric oxide donors for inducing neurogenesis” (Henry Ford Health System, priority 1999, dated 2013).

Experiments:
Assay type in all cases: in vivo, rat
ischemic rats (stroke) = assay: Battery of neurological functional tests (NSS, Rotarod, footfault, adhesive removal, body weight) after stroke; conditions: Group 3: iv at one day and two days after stroke; middle aged rats; vs control
Description: Administration of nitric oxide donor compound (DETA/NO) to normal and ischemic rats promotes neurogenesis in non-ischemic and ischemic brains. Since then, additional experiments have been performed to test the hypothesis that neurogenesis induced by DETA/NO promotes functional improvement after stroke; the data is provided herewith. Animals were administered (iv/ip) DETA/NO at one day (Group 1) or seven days (Group 2) after induction of stroke and followed by daily injection (ip) of DETA/NO over a period of seven days. Another NO donor compound (SNAP) was administered (iv) to ischemic rats at one day and two days after stroke (Group 3). Young (3 month old) rats were used in Groups 1 and 2. Middle aged rats (10 to 12 months old) were used in Group 3. A battery of neurological functional tests were measured from two days to forty-two days after stroke. These tests included 1) Neurological severity score (NSS) which measures motor, sensory and reflex functions and is similar to the contralateral neglect testing described in humans. The higher the score, the more severe the injury; 2) Rotarod test measures fore and hindlimb motor coordination and balance. Data are presented as percentage of baseline values; 3) Footfault test measures fore and hindlimb motor coordination. The higher the number, the more severe the injury; 4) Adhesive removal test measures sensorimotor impairments. Data are presented as time (seconds). The longer the time period, the more severe the injury; 5) Animal body weight.

[1] = tested on: progenitor cells in the dentate gyrus and subventricular zone (SVZ); assay: Cell proliferation (BrdU immunoreactive cells) in ischemic rats treated with VIAGRA; conditions: 28 days after ischemia, vs saline
Description: (§1) The MCA was occluded by placement of an embolus at the origin of the MCA.
(§2) For BrdU immunostaining, DNA was first denatured by incubating brain sections (6 μm) in 50% formamide 2×SSC at 65° C. for 2 hours and then in 2 N HCL at 37° C. for 30 minutes. Sections were then rinsed with Tris buffer and treated with 1% of H2O2 to block endogenous peroxidase. Sections were incubated with a primary antibody to BrdU (1:100) at room temperature for 1 hour and then incubated with biotinylated secondary antibody (1:200, Vector, Burlingame, Calif.) for 1 hour. Reaction products were detected using 3′3′-diaminobenzidine-tetrahydrochloride (DAB, Sigma). For TuJ1 immunostaining, coronal sections were incubated with the antibody against TuJ1 (1:1000) at 4° C. overnight and then incubated with a biotinylated horse anti-mouse immunoglobulin antibody at room temperature for 30 minutes. Reaction products were detected with DAB.
BrdU immunostained sections were digitized using a 40× objective (Olympus BX40) via the MCID computer imaging analysis system (Imaging Research, St. Catharines, Canada). BrdU immunoreactive nuclei were counted on a computer monitor to improve visualization and in one focal plane to avoid over-sampling. Structures were sampled by analyzing entire structures on each section (SVZ and dentate gyrus). All BrdU immunoreactive-positive nuclei in these areas are presented as the number of the BrdU immunoreactive cells/mm^2 and data shown are mean±SE. Density for the selected several sections was averaged to obtain a mean density value for each animal. For measurements of TuJ1 immunoreactivity, a threshold was applied to each digitized image (628×480 μm^2) for ensuring that the numbers of TuJ1 immunostained pixels were representative of the original TuJ1 immunoreactive patterns. All objects with fewer than 5 pixels were eliminated from measurements. Data are presented as a percentage of area, in which the number of TuJ1 immunostained pixels was divided by the total number of pixels in the area (628×480 μm^2). […]

[2] = tested on: TuJ1 immunoreactive cells; assay: TuJ1 immunoreactivity 28 days after ischemia; conditions: 2 or 5 mg/kg; vs contralateral hemisphere and saline treated ischemic rats
Description: as §2, with “3'3'-diaminobenzidine-tetrahydrochloride” for “3′3′-diaminobenzidine-tetrahydrochloride”, “DAB. BrdU immunostained sections were digitized using a 40× objective (Olympus BX40) via the MCID computer imaging analysis system (Imaging Research, St. Catharines, Canada). BrdU immunoreactive nuclei were counted on a computer monitor to improve visualization and in one focal plane to avoid over-sampling. Structures were sampled by analyzing entire structures on each section (SVZ and dentate gyrus). […] To examine the effects of […] on neurons, TuJ1 immunoreactivity was measured 28 days after ischemia.” for “DAB.”

[3] = tested on: ischemic rats (MCA occlusion); assay: Behavior tests (foot-fault, adhesive removal) and body weight after MCA occlusion
Description: as §1
(§3) The ischemic rats (n=9) were treated with the same volume of saline as a control group. Rats received intraperitoneal injection of BrdU (50 mg/kg) 24 hours after ischemia and daily intraperitoneal injection of BrdU for 14 consecutive days. All rats were sacrificed 28 days after ischemia.

[4] = tested on: focal cerebral ischemia (MCA occlusion); assay: Infarct volume 28 days after ischemia
Description: as §1, §3

Structure (SMILES) | motor and sensorimotor functions (Rotarod, footfault, Adhesive removal tests) (ischemic rats (stroke)) | numbers of BrdU immunoreactive cells in the ipsilateral SVZ ([1]; 2 mg/kg) | numbers of BrdU immunoreactive cells in the SVZ of both hemispheres ([1]; 5 mg/kg) | numbers of BrdU immunoreactive cells in the dentate gyrus of both hemispheres ([1]; oral 2 or 5 mg/kg initiated at 2 or 24 hours after stroke) | TuJ1 immunoreactive cells in the ipsilateral SVZ and striatum [2] | animal body weight loss ([3]; 2 mg/kg or 5 mg/kg initiated at 2 hours) | performance on the foot-fault test and the adhesive removal test ([3]; 2 mg/kg or 5 mg/kg initiated at 2 hours of onset of ischemia, during 2 to 21 days, vs saline) | foot-fault and adhesive removal tests ([3]; 2 mg/kg starting at 24 hours after onset of ischemia, during 7 to 28 days) | body weight loss ([3]; 2 mg/kg starting at 24 hours, at 4, 7 14, 21 and 28 days after ischemia) | infarct volume 28 days after ischemia ([4]; 2 mg/kg starting at 24 hours, vs control group) | infarct volumes measured 28 days after ischemia ([4]; 2 or 5 mg/kg initiated at 2 hours, vs saline) | % of infarct volume at 28 days (Mean ± SE) ([4]; group 1: 2 h after MCAo, 2 mg/kg oral × 7days) [%] | % of infarct volume at 28 days (Mean ± SE) ([4]; group 2: 2 h after MCAo, 5 mg/kg oral × 7days) [%] | % of infarct volume at 28 days (Mean ± SE) ([4]; group 3: 24 h after MCAo, 2 mg/kg oral × 7days) [%]
CC(=O)N[C@H](C(=O)O)C(C)(C)SN=O (racemic) [SNAP, S-nitroso-N-acetylpenicillamine] | significant improvements |  |  |  |  |  |  |  |  |  |  |  |  | 
CCCc1nn(C)c2c(=O)[nH]c(-c3cc(S(=O)(=O)N4CCN(C)CC4)ccc3OCC)nc12 [VIAGRA™, sildenafil] |  | significantly (p<0.05) increased | significantly (p<0.05) increased | significant (p<0.05) increases | significantly (p<0.05) increased | significantly reduced | significantly improved performance | significant (p<0.05) improvements | significant (p<0.05) reduction | no significant differences | not significantly different | 35.15 ± 3.25 | 37.67 ± 4.33 | 35.52 ± 0.93
